Columns and labels:
Format in all cases: in vivo, human
[1] = test system: relapsing-remitting multiple sclerosis patient; experiment: MS relapse, 24-week add-on study (Example 1); conditions: 24 weeks, ITT
Procedure: (§1) A placebo-controlled, double-blinded, randomized, 3-parallel group stratified study was conducted in relapsing-remitting multiple sclerosis patient who were concurrently on a stable dose of interferon beta. The dose level of interferon beta was defined as follows: • Low dose: AVONEX® (interferon beta-1a) 30 mcg once a week intramuscularly, or REBIF® (interferon beta-1a) 22 mcg three times per week subcutaneously. • High dose: REBIF® 44 mcg three times per week subcutaneously, or BETASERON® (interferon beta-1b) 0.25 mg every other day subcutaneously.
(§2) Around 40 patients were treated in each treatment group (placebo: 41, 7 mg: 37, and 14 mg: 38). A third of patients in each group were treated with low dose interferon beta 1a. […] The mean age of the study population was 40.1 years. […] The base line Expanded Disability Status Scale (EDSS) score was similar between treatment groups (around 2.5).
(§3) Safety was evaluated from Treatment Emergent Adverse Event (TEAE), physical examination and laboratory data (e.g. Liver Function Test, every 2-8 weeks), ECG and abdominal ultrasound (24-weeks). Brain MRI (magnetic resonance image) activity, including T1-gadolinium (T1-Gd) with central reading were recorded every 8-week. Relapses were recorded and EDSS was performed at 24-week.

[2] = test system: relapsing-remitting multiple sclerosis patient; experiment: MS relapse, 48-week double-blind treatment period (Example 2)
Procedure: as §1
(§4) Design/Methods: 86 of the 116 patients that were randomized to treatment (placebo: 41; 7 mg: 37; 14 mg: 38) for the first 6-months in Example 1 completed this 6-month period and accepted to continue medication for an additional 6-month period (placebo: 31, 7 mg: 28, 14 mg: 27). Safety was evaluated from TEAE, physical exam (every 6 weeks), laboratory data (every 6 weeks), ECG (at the close-out visit), pancreatic ultrasound (at the close-out visit) and brain MRI (at the close-out visit). Relapses were recorded and EDSS was performed every 6-weeks. Annualized relapse rates (ARR) were estimated by a Poisson model adjusted to IFN strata and to geographical regions. The following results report the entire 48-week double-blind treatment period.

[3] = test system: relapsing-remitting multiple sclerosis patient; experiment: Brain MRI Gd-enhancing T1-lesions, 48-week double-blind treatment period (Example 2); conditions: for Patients with >=1 Gd-enhancing T1-lesions post-baseline, No (% of patients; free of T1-Gd lesions): 48 weeks, ITT; for Relative risk reduction in the number of T1-Gd lesions compared with placebo added to IFN-beta / Relative reduction of T1-Gd lesion volume compared to placebo: 48 week; for Relative risk reduction in the number of T1-Gd lesions compared with placebo added to IFN-beta: adjusted
Procedure: as §1, §4

[4] = test system: relapsing-remitting multiple sclerosis patient; experiment: Safety (TEAE, laboratory data), 24-week add-on study (Example 1); conditions: 24 weeks
Procedure: as §1, §2, §3

[5] = test system: relapsing-remitting multiple sclerosis patient; experiment: Brain MRI Gd-enhancing T1-lesions, 24-week add-on study (Example 1); conditions: for Patients with >=1 Gd-enhancing T1-lesions post-baseline, No (% of patients; free of T1-Gd lesions): 24 weeks, ITT; for Relative risk reduction in the number of T1-Gd lesions compared with placebo added to IFN-beta / Relative reduction of T1-Gd lesion volume compared to placebo: 24 week; for Relative risk reduction in the number of T1-Gd lesions compared with placebo added to IFN-beta: adjusted
Procedure: as §1, §2, §3

[6] = test system: relapsing-remitting multiple sclerosis patient; experiment: Safety (TEAE, laboratory data), 48-week double-blind treatment period (Example 2); conditions: 48 weeks
Procedure: as §1, §4

[7] = 14 mg teriflunomide in addition to stable-dose IFN-beta, p<0.0001
[8] = 7 mg teriflunomide added to stable-dose interferon beta
[9] = 14 mg teriflunomide added to stable-dose interferon beta
[10] = 7 mg teriflunomide added to stable-dose IFN-beta
[11] = 14 mg teriflunomide added to stable-dose IFN-beta

Structure (SMILES): C/C(O)=C(\C#N)C(=O)Nc1ccc(C(F)(F)F)cc1 [teriflunomide, (Z)-2-cyano-3-hydroxy-but-2-enoic acid-(4′-trifluoromethylphenyl)-amide]
- Total number of relapses ([1]; 7 mg teri + IFN-β, 16.4 patient-years followed): 5
- Total number of relapses ([1]; 14 mg teri + IFN-β, 17.3 patient-years followed): 2
- Reduction in annualized relapse rate compared to IFN-beta ([2]; 7 mg teriflunomide in addition to stable-dose IFN-beta, p=0.43): 32.6%
- Reduction in annualized relapse rate compared to IFN-beta ([2]; 14 mg teriflunomide in addition to stable-dose IFN-beta, p=0.11): 57.9%
- Patients with >=1 Gd-enhancing T1-lesions post-baseline, No (% of patients; free of T1-Gd lesions) ([3]; 7 mg teri + IFN-β): 69.4%
- Relative risk reduction in the number of T1-Gd lesions compared with placebo added to IFN-beta ([3]; 7 mg teriflunomide in addition to stable-dose IFN-beta, p=0.0005): 84.6%
- Relative reduction of T1-Gd lesion volume compared to placebo ([3]; 7 mg teriflunomide in addition to stable-dose IFN-beta, p=0.1104): 72.1%
- Patients with >=1 Gd-enhancing T1-lesions post-baseline, No (% of patients; free of T1-Gd lesions) ([3]; 14 mg teri + IFN-β): 76.3%
- Relative risk reduction in the number of T1-Gd lesions compared with placebo added to IFN-beta [3, 7]: 82.8%
- Relative reduction of T1-Gd lesion volume compared to placebo ([3]; 14 mg teriflunomide in addition to stable-dose IFN-beta, p=0.0154): 70.6%
- Proportion of patients with ALT/SGPT greater than 3xULN [4, 8]: 0%
- Proportion of patients with TEAE due to increased ALT/SGPT [4, 8]: 13.5%
- Proportion of patients with TEAE potentially related to immunosuppression (white blood cell counts, infections and infestations) [4, 8]: 49%
- Upper respiratory tract infections (nasopharyngitis, sinusitis), proportion of patients [4, 8]: 10.8%
- Proportion of patients with ALT/SGPT greater than 3xULN [4, 9]: 5.3%
- Proportion of patients with TEAE due to increased ALT/SGPT [4, 9]: 28.9%
- Proportion of patients with TEAE potentially related to immunosuppression (white blood cell counts, infections and infestations) [4, 9]: 50%
- Upper respiratory tract infections (nasopharyngitis, sinusitis), proportion of patients [4, 9]: 23.7%
- Concomitant bilirubin increase (with ALT/SGPT increase) ([4]; all groups, 7 mg or 14 mg teriflunomide added to stable-dose interferon beta): no case
- Patients with >=1 Gd-enhancing T1-lesions post-baseline, No (% of patients; free of T1-Gd lesions) ([5]; 7 mg teri + IFN-β): 69.4%
- Relative risk reduction in the number of T1-Gd lesions compared with placebo added to IFN-beta ([5]; 7 mg teriflunomide in addition to stable-dose IFN-beta, p=0.0009): 82.6%
- Relative reduction of T1-Gd lesion volume compared to placebo ([5]; 7 mg teriflunomide in addition to stable-dose IFN-beta, p=0.1931): 67.6%
- Patients with >=1 Gd-enhancing T1-lesions post-baseline, No (% of patients; free of T1-Gd lesions) ([5]; 14 mg teri + IFN-β): 81.6%
- Relative risk reduction in the number of T1-Gd lesions compared with placebo added to IFN-beta [5, 7]: 84.4%
- Relative reduction of T1-Gd lesion volume compared to placebo ([5]; 14 mg teriflunomide in addition to stable-dose IFN-beta, p=0.0072): 64.7%
- Patients with ALT increased above 3ULN without concomitant increase in bilirubin (number) [6, 10]: 1
- TEAE all gastrointestinal disorders [6, 10]: 18.9%
- TEAE all type of headaches [6, 10]: 5.4%
- TEAE upper respiratory tract infections as a whole [6, 10]: 16.2%
- TEAEs that led to treatment discontinuation (number) [6, 10]: 3
- White blood cell counts decreases (number) [6, 10]: 3
- Patients with ALT increased above 3ULN without concomitant increase in bilirubin (number) [6, 11]: 3
- TEAE all gastrointestinal disorders [6, 11]: 31.6%
- TEAE all type of headaches [6, 11]: 18.4%
- TEAE upper respiratory tract infections as a whole [6, 11]: 23.7%
- TEAEs that led to treatment discontinuation (number) [6, 11]: 3
- White blood cell counts decreases (number) [6, 11]: 4
